Measurements published in US12360106B2, “Photochromic xanthene fluorophores and their utility in live-cell imaging beyond the diffraction limit” (HOWARD HUGHES MEDICAL INSTITUTE, priority 2017, dated 2025).

Experiment: water solubility (comparative statement)
Format: physicochemical
Conditions: compared to PC-JF549-NHS

COCCOCCOCCOCCNC(=O)c1cc2ccc(N3C(=O)c4ccc(C(=O)ON5C(=O)CCC5=O)cc4C34c3ccc(N5CCC5)cc3[Si](C)(C)c3cc(N5CCC5)ccc34)cc2oc1=O [PC-JF646-PEG-NHS, 2,5-dioxopyrrolidin-1-yl 2′-(3-((2,5,8,11-tetraoxatridecan-13-yl)carbamoyl)-2-oxo-2H-chromen-7-yl)-3,7-di(azetidin-1-yl)-5,5-dimethyl-3′-oxo-5H-spiro[dibenzo[b,e]siline-10,1′-isoindoline]-6′-carboxylate]
water solubility: better water solubility
